This is an account of results in publication PMC4366162 (PLoS ONE, 2015).

Where a name gives a salt, the structure may show the parent alone. Read-outs that look alike come from different tables or passages of the source. Bounds are passed on as bounds.

In general, IC50 refers to the point on the concentration scale where inhibition reaches its midpoint.

The nature of series [1]: NO radical quenching study (spontaneous NO from sodium nitroprusside, Griess assay). As to conditions: sodium nitroprusside 5 mM in solution, read-out: IC50 of inhibition of spontaneously generated NO radicals from sodium nitroprusside. The method, then:
Spontaneous generation of NO in solutions was achieved by a freshly prepared sodium nitroprusside stock solution in water (50 mM). The level of total nitrile production was determined by the Griess assay with the standard curve of sodium nitrile as described above. For the assay of NO inhibition by flavonoids, sodium nitroprusside solution (10 mM, 25 μL) was mixed with an equal volume of flavonoid solution in 50% DMSO, and the resulting solution was incubated at room temperature for 10 min. Griess reagent І and Griess reagent II (75 μL each) were subsequently added with a gap of 10 min. The optical density at 540 nm was recorded on a 318C-microplate reader after 15 min. The resulting data were processed and analyzed by the GraphPad Prism Software as described above.
Fig 3 Direct NO radical quench study with selected monohydroxylated and polyhydroxylated flavones. Spontaneous generation of NO was achieved by a freshly prepared sodium nitroprusside stock solution (5 mM) in water in Griess assay (top).

The test system of series [2] is LPS-induced NO production in rat kidney mesangial cells (HBZY-1). The experiment in a line: Total nitrite assay (Griess): inhibition of LPS-induced NO production in kidney mesangial cells. In kind it is cell-based. Particulars: for IC50: read-out: IC50 against LPS-induced NO production (total nitrite). On the procedure:
(§1) Rat mesangial HBZY-1 cells were obtained from China Center for Type Culture Collection (Wuhan, China). Cells were maintained in high glucose DMEM medium (Invitrogen, USA) supplemented with 10% heat-inactivated fetal bovine serum (FBS), 25 mM HEPES, 2 mM L-glutamine, 0.1 mM nonessential amino acids, 1.0 mM sodium pyruvate, 50 U/mL penicillin, and 50 μg/mL streptomycin at 37°C and 5% CO2. The cell passage number used for the following investigation was between 10 to 20 passages.
Mesangial cells were plated on 48-well plates at a density of 50,000 cells per well overnight in DMEM media containing 2% FBS. Cells were treated by flavonoid compounds at a series of concentrations from 0, 0.05, 0.1, 0.5, 1, 5, 10 to 50 μM or 0, 1, 5, 10, 50, 100 to 200 μM based on the initial activity range with or without 10 ng/mL LPS. Total nitrite production in the treatment media after 48 h was measured with Griess assay. Briefly, 100 μL media was mixed with 25 μL of reagent І (1% sulfanilamide in 5% phosphoric acid) and then 25 μL of reagent II (0.1% N-1-napthylethylenediamine dihydrochloride in water). The optical absorbance of the resulting solution was recorded at 540 nm with a 318C-microplate reader (Sanco Instrument Ltd. Shanghai, China) after 20 min. […] IC50 values were obtained using the dose-response analysis provided by the GraphPad Prism software.
All of the hydroxylated flavones were abbreviated as the positions of hydroxyl groups followed by—HO. The total production of nitrite in the treatment media was measured with Griess assay at 48 h post 10 ng/mL LPS stimulation.
For orientation: The Griess reaction detects nitrite, a stable product of nitric oxide.

Series [3] has as its system mesangial cells. The experiment in a line: MTT cell viability assay. In kind it is cell-based, rat. As to conditions: 48 h. The method, then: as §1
Cells were plated overnight in growth media (5,000 cells per well) and then treated with each compound for 48 h at increasing concentrations with total DMSO at 0.1%. MTT assay was carried out as reported, and cell viability was plotted with GraphPad Prism program.
(Tetrazolium assays rely on reduction of a dye to a coloured formazan, in cell work by metabolically active cells.)

Series [4] concerns cytochrome P450 2C9. Set-up: method as in PMID 19515014. Particulars: cited from earlier work.
In series [5] the test system is phosphorylated p65 protein (NF-κB pathway). As to the kind of experiment: Western blot analysis of LPS-activated NF-κB pathway (phosphorylated p65). It is filed as cell-based, rat. Particulars: up to 1.0 μM, 12 h pretreatment, LPS 500 ng/mL, 15 min. The method, then:
(§2) Cells were plated in growth media overnight at a density of 1×10^6 cells per well on a 6-well plate. […] For the western blot analysis, cells were washed with PBS and then lysed with 150 μL RIPA buffer containing protease and phosphatase inhibitor cocktail. The supernatants were collected by centrifuge at 14,000 g×10 min at 4°C and stored at -80°C. The total protein content of lysates was determined by enhanced BCA protein assay kit (Beyotime Institute of Biotechnology, Shanghai, China). Electrophoresis was carried out on a NuPAGE Novex Bis-Tris […] gel (Invitrogen, USA) under the reduced condition. After electrophoresis separation, proteins were transferred to membranes and incubated with rabbit monoclonal phospho-NF-κB-p65 antibody (3033S, 1:1000 dilution, Cell Signaling, USA), rabbit polyclonal iNOS antibody (ab3523, 1:500 dilution, Abcam, USA) or mouse monoclonal β-actin antibody (ANT009, 1:1000 dilution AntGene, China). Targeted proteins were then visualized with Qdot 625 conjugate kit (Invitrogen, USA). Gel images were captured with ZF-258 Gel Imaging System (Shanghai Jiapeng Scientific Co. Ltd, China) under illuminating light at 350 nm.
(§3) Fig 5 Western blot analysis of potential molecular targets by 6-methoxyflavone in kidney mesangial cells with LPS as the inflammatory stimuli. […]
A general note: In western blotting, separated proteins are transferred to a membrane and probed.

Series [6] concerns inducible NO synthase (iNOS). As to the kind of experiment: Western blot analysis of LPS-induced iNOS protein. It is filed as cell-based, rat. Particulars: 12 h pretreatment, LPS 500 ng/mL, 24 h. The method, then:
as §2, §3

Where [7] appears, read: Rattus norvegicus, HBZY-1, 48 h, rat mesangial cells, 10 ng/mL LPS, 48 h, Griess assay.
[8] abbreviates: Rattus norvegicus, HBZY-1, 48 h.

In the case of `O=C1O[C@H]([C@@H](O)CO)C(O)=C1O` [ascorbic acid, reference compound], the IC50 in series [1] came out at 254 µM.
Regarding `CC(=O)Oc1ccc2oc(-c3ccccc3)cc(=O)c2c1` [compound 10, 6-Acetoxyflavone], in series [2] (setting [7]), the IC50 is 0.6 µM. Besides, the “cytotoxicity on mesangial cells” value in series [3] (at 10 μM) is “weak cytotoxicity”.
`O=c1cc(-c2ccc(O)cc2)oc2cccc(O)c12` [compound 6]: the IC50 in series [2] (setting [7]) was found to be 14 µM. Further, the “increase of IC50 against LPS-induced NO production versus flavone 5” value in series [2] (shift of hydroxyl group from 6-position to 5-position) amounted to 7 fold.
In the case of `O=c1cc(-c2ccc(O)cc2)oc2cc(O)cc(O)c12` [4',5,7-HO, apigenin], the IC50 in series [2] (setting [7]) is above 200 µM.
Take `O=c1c(O)c(-c2cc(O)c(O)c(O)c2)oc2cc(O)cc(O)c12` [3,3',4',5',5,7-HO, 3,3′,4′,5,5′,7-hexahydroxyflavone]: the IC50 in series [2] (setting [7]) was above 200 µM; in series [1], around 10000 µM.
Consider `O=c1c(O)c(-c2ccccc2)oc2cc(O)ccc12` [compound 7], for which the IC50 in series [2] (setting [8]) was determined as 27 µM.
Take `O=c1cc(-c2ccccc2O)oc2ccccc12` [compound 3]: the IC50 in series [2] (setting [7]) was above 200 µM.
Still for that read-out and setting: with `O=c1c(O)c(-c2ccc(O)cc2O)oc2ccc(O)cc12` [2',3,4',6-HO, 2′,3,4′,6-tetrahydroxyflavone] the figure was around 200 µM.
Take `O=c1c(O)c(-c2ccccc2O)oc2c(O)c(O)ccc12` [2',3,7,8-HO]: in series [2] (setting [7]), the IC50 is around 200 µM.
For `O=c1c(-c2ccc(O)cc2)coc2cc(O)ccc12` [daidzein, reference compound], the IC50 in series [2] (setting [7]) is above 200 µM.
The same measure, in the same setting: with `O=c1cc(-c2cc(O)c(O)c(O)c2)oc2cc(O)cc(O)c12` [3',4',5',5,7-HO, tricetin] the figure was around 200 µM; with `O=c1c(O)c(-c2cccc(O)c2)oc2cc(O)ccc12` [3,3',7-HO], 11 µM.
Consider `O=c1cc(-c2ccccc2)oc2ccc(OS(=O)(=O)O)cc12` [compound 11, 6-flavone sulfate sodium salt], for which, in series [2] (setting [7]), the IC50 amounted to 2.1 µM. The “cytotoxicity on mesangial cells” value in series [3] (at 10 μM) is reported as “minimal”.
For `O=c1cc(-c2ccccc2)oc2cc(O)ccc12` [compound 2, 7-hydroxyflavone], the IC50 was 46 µM in series [2] (setting [8]) and above 500 µM in series [1].
`O=c1c(O)c(-c2ccc(O)c(O)c2)oc2cc(O)cc(O)c12` [3,3',4',5,7-HO, quercetin]: in series [2] (setting [7]), the IC50 is 22 µM.
As for `O=c1c(O)c(-c2ccc(O)c(O)c2)oc2c(O)c(O)cc(O)c12` [3,3',4',5,7,8-HO, 3,3′,4′,5,7,8-hexahydroxyflavone], in series [2] (setting [8]), the IC50 was above 200 µM.
On to `O=c1cc(-c2ccccc2)oc2c(O)c(O)ccc12` [compound 8], for which, in series [2] (setting [7]), the IC50 turned out to be 47 µM.
As for `O=c1c(O)c(-c2ccccc2)oc2ccccc12` [compound 4, 3-Hydroxyflavone], the IC50 in series [2] (setting [7]) is above 200 µM; in series [1], above 500 µM.
For `O=c1cc(-c2ccc(O)cc2)oc2ccc(O)cc12` [compound 5, 4′,6-dihydroxyflavone], the IC50 in series [2] (setting [7]) was around 2 µM.
As to `O=c1cc(-c2ccccc2)oc2ccc(O)cc12` [compound 1, 6-hydroxyflavone], the IC50 in series [2] (setting [7]) was around 2 µM; in series [2] (rat mesangial cells, 10 ng/mL LPS, 48 h, Griess assay), 1.7 µM; in series [1], above 500 µM. In addition, in series [4], the “mode of inhibition of cytochrome P450 2C9” value is reported as “noncompetitive inhibition”.
For the molecule `COc1ccc2oc(-c3ccccc3)cc(=O)c2c1` [compound 9, 6-methoxyflavone], the IC50 in series [2] (setting [7]) was found to be 0.192 µM. Moreover, the “potency against LPS-induced NO production relative to 6-hydroxyflavone” value in series [2] (more potent than 6-hydroxyflavone (IC50 1.7 μM)) is on record as 10 fold. Also, the “cytotoxicity on mesangial cells” value in series [3] (at 1.0 μM) is on record as “weak cytotoxicity”. Moreover, the “inhibition of p65 activation (phosphorylated p65)” value in series [5] is reported as “no observable inhibition”. In series [6] (from 200 nM to 1.0 μM), the “inhibition of downstream inducible NO synthase (iNOS) upon LPS stimulation” value is on record as “significant inhibition”.
For `O=c1c(O)c(-c2ccc(O)c(O)c2)oc2cc(O)ccc12` [3,3',4',7-HO, fisetin], the IC50 in series [2] (setting [7]) was found to be 11 µM.
On the same count and under the same terms, with `O=c1c(O)c(-c2ccc(O)cc2O)oc2cc(O)cc(O)c12` [2',3,4',5,7-HO, morin] the figure was around 200 µM.
As for `Oc1ccc(/C=C/c2cc(O)cc(O)c2)cc1` [resveratrol, reference compound], in series [2] (setting [7]), the IC50 came to 11 µM. Besides, the “inhibition of downstream inducible NO synthase (iNOS) upon LPS stimulation” value in series [6] (at 10 μM) is “weak inhibition”.
